Measured values published in patent publication US10668067B2, “Pyridine sulfonamides” (AMGEN INC., priority 2016, dated 2020).

biological target: human Nav1.7 (Homo sapiens (Human), UniProt Q15858); experiment: Nav 1.7 In Vitro PX Assay (PatchXpress whole cell voltage clamp); assay type: cell-based; conditions: in-vitro Nav 1.7 PX data
Protocol: HEK 293 cells stably transfected with human Nav1.7 were recorded in whole cell voltage clamp mode with the PatchXpress automated electrophysiology system (Molecular Devices, LLC, Sunnyvale, Calif.). Compound effects were measured on a partially inactivated state of the sodium channel. Cells were clamped to a holding potential yielding 20 to 50% inactivation. To elicit sodium current, channels were activated by pulsing to −10 mV for 20 msec. This voltage protocol was repeated at a rate of 0.1 Hz throughout the experiment. A single concentration of test compound was applied to cells for a duration of 3 minutes. Peak sodium current was measured at the end of the compound addition period to determine percent inhibition. Three to five cells were tested per concentration, and IC50 curves were fitted to percent inhibition as a function of concentration.

Sequence of human Nav1.7 (Q15858 whole entry): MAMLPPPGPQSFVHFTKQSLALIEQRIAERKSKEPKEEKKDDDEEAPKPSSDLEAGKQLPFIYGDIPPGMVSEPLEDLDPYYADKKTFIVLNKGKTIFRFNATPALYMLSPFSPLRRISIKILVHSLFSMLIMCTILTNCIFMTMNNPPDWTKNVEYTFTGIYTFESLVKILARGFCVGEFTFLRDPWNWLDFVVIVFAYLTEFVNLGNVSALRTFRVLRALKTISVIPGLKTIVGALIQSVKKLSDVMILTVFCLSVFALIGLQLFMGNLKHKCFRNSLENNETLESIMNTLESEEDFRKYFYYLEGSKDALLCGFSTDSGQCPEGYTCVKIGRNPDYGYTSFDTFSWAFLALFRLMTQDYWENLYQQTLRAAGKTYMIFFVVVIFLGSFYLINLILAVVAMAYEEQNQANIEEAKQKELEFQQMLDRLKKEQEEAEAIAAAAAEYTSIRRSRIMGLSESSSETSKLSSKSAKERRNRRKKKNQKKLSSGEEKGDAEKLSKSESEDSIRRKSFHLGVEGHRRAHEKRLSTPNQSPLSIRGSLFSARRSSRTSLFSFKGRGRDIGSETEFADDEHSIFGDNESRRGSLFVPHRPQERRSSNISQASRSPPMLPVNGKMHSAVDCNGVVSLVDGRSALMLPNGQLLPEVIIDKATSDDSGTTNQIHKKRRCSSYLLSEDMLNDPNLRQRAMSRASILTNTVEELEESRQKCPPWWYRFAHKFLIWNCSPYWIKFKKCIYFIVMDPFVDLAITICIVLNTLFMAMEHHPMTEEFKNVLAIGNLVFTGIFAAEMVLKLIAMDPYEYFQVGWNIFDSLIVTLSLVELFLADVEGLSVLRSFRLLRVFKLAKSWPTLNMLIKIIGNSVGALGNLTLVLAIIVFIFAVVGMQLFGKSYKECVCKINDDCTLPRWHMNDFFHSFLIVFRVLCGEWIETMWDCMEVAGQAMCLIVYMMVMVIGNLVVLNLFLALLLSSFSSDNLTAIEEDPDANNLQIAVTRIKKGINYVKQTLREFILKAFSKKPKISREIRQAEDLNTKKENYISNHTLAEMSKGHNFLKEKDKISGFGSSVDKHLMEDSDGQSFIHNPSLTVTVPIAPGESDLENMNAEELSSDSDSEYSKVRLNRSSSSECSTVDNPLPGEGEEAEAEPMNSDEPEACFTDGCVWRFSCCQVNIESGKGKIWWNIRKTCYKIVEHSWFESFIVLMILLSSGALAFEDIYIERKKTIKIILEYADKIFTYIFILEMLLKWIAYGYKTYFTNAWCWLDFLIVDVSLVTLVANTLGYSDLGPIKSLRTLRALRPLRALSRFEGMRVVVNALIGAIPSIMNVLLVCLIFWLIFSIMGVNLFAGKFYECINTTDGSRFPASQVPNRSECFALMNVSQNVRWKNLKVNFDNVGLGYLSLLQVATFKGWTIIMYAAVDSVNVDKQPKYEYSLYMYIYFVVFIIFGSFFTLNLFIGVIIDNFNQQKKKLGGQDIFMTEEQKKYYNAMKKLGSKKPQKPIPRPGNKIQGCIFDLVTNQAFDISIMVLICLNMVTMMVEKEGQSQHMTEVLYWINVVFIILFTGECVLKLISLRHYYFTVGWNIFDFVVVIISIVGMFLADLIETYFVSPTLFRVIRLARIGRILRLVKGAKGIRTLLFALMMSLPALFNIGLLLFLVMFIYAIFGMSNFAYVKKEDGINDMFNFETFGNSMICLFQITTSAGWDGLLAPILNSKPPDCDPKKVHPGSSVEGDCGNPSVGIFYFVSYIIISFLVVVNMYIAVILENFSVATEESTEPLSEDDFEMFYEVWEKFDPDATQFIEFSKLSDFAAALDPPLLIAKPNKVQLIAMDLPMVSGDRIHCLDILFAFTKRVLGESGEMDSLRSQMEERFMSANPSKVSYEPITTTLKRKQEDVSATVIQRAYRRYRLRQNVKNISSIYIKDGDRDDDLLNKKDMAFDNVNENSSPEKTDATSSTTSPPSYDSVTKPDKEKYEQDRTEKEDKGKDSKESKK

Row | SMILES | IC50 [nM]
1 | CNC(=O)N(c1ccc(S(=O)(=O)Nc2cccnn2)cn1)c1cc(F)c(-c2ccc(Cl)c(C)c2)cc1OC [Example 1-2, 6-((4′-chloro-2-fluoro-5-methoxy-3′-methyl-4-biphenylyl)(methylcarbamoyl)amino)-N-3-pyridazinyl-3-pyridinesulfonamide] | 106
2 | CNC(=O)N(c1ccc(S(=O)(=O)Nc2cccnn2)cn1)c1cc(F)c(-c2cccc(C(F)(F)F)c2)cc1OC [Example 1-3, 6-((2-fluoro-5-methoxy-3′-(trifluoromethyl)-4-biphenylyl)(methylcarbamoyl)amino)-N-3-pyridazinyl-3-pyridinesulfonamide] | 40
3 | CNC(=O)N(c1ccc(S(=O)(=O)Nc2ccon2)cn1)c1cc(F)c(-c2cccc(C(F)(F)F)c2)cc1OC [Example 1-4, 6-((2-fluoro-5-methoxy-3′-(trifluoromethyl)-4-biphenylyl)(methylcarbamoyl)amino)-N-3-isoxazolyl-3-pyridinesulfonamide] | 33
4 | CNC(=O)N(c1ccc(S(=O)(=O)Nc2ccon2)cn1)c1cc(F)c(-c2cc(F)cc(Cl)c2)cc1OC [Example 1-5, 6-((3′-chloro-2,5′-difluoro-5-methoxy-4-biphenylyl)(methylcarbamoyl)amino)-N-3-isoxazolyl-3-pyridinesulfonamide] | 92
5 | CNC(=O)N(c1ccc(S(=O)(=O)Nc2ccon2)cn1)c1cc(F)c(-c2cc(Cl)cc(OC)c2)cc1OC [Example 1-6, 6-((3′-chloro-2-fluoro-5,5′-dimethoxy-4-biphenylyl)(methylcarbamoyl)amino)-N-3-isoxazolyl-3-pyridinesulfonamide] | 51
6 | CNC(=O)N(c1ccc(S(=O)(=O)Nc2ccon2)cn1)c1cc(F)c(-c2cc(OC)cc(OC(F)(F)F)c2)cc1OC [Example 1-7, 6-((2-fluoro-3′,5-dimethoxy-5′-(trifluoromethoxy)-4-biphenylyl)(methylcarbamoyl)amino)-N-3-isoxazolyl-3-pyridinesulfonamide] | 18
7 | CNC(=O)N(c1ccc(S(=O)(=O)Nc2ccon2)cn1)c1cc(F)c(-c2cccc(OC)c2)cc1OC [Example 1-8, 6-((2-fluoro-3′,5-dimethoxy-4-biphenylyl)(methylcarbamoyl)amino)-N-3-isoxazolyl-3-pyridinesulfonamide] | 206
8 | CNC(=O)N(c1ccc(S(=O)(=O)Nc2ccon2)cn1)c1cc(F)c(-c2cc(OC)cc(C(F)(F)F)c2)cc1OC [Example 1-9, 6-((2-fluoro-3′,5-dimethoxy-5′-(trifluoromethyl)-4-biphenylyl)(methylcarbamoyl)amino)-N-3-isoxazolyl-3-pyridinesulfonamide] | 18
9 | CNC(=O)N(c1ccc(S(=O)(=O)Nc2ccon2)cn1)c1cc(F)c(-c2cccc(C3CC3)c2)cc1OC [Example 1-13, 6-((3′-cyclopropyl-2-fluoro-5-methoxy-4-biphenylyl)(methylcarbamoyl)amino)-N-3-isoxazolyl-3-pyridinesulfonamide] | 46
10 | CNC(=O)N(c1ccc(S(=O)(=O)Nc2ccon2)cn1)c1cc(F)c(-c2cc(C)cc(F)c2)cc1OC [Example 1-18, 6-((2,3′-difluoro-5-methoxy-5′-methyl-4-biphenylyl)(methylcarbamoyl)amino)-N-3-isoxazolyl-3-pyridinesulfonamide] | 146
11 | CNC(=O)N(c1ccc(S(=O)(=O)Nc2ccon2)cn1)c1cc(F)c(-c2cc(C)cc(Cl)c2)cc1OC [Example 1-19, 6-((3′-chloro-2-fluoro-5-methoxy-5′-methyl-4-biphenylyl)(methylcarbamoyl)amino)-N-3-isoxazolyl-3-pyridinesulfonamide] | 47
12 | CNC(=O)N(c1ccc(S(=O)(=O)Nc2ccon2)cn1)c1cc(F)c(-c2cc(OC)c(F)c(OC)c2)cc1OC [Example 1-23, 6-((2,4′-difluoro-3′,5,5′-trimethoxy-4-biphenylyl)(methylcarbamoyl)amino)-N-3-isoxazolyl-3-pyridinesulfonamide] | 151
13 | CNC(=O)N(c1ccc(S(=O)(=O)Nc2ccon2)cn1)c1cc(F)c(-c2cc(Cl)c(F)c(OC)c2)cc1OC [Example 1-25, 6-((3′-chloro-2,4′-difluoro-5,5′-dimethoxy-4-biphenylyl)(methylcarbamoyl)amino)-N-3-isoxazolyl-3-pyridinesulfonamide] | 16
14 | CNC(=O)N(c1ccc(S(=O)(=O)Nc2ccon2)cn1)c1cc(Cl)c(-c2ccc(F)c(C)c2)cc1OC [Example 1-28, 6-((2-chloro-4′-fluoro-5-methoxy-3′-methyl-4-biphenylyl)(methylcarbamoyl)amino)-N-3-isoxazolyl-3-pyridinesulfonamide] | 58
15 | CNC(=O)N(c1ccc(S(=O)(=O)Nc2ccon2)cn1)c1cc(Cl)c(-c2ccc(Cl)c(C)c2)cc1OC [Example 1-29, 6-((2,4′-dichloro-5-methoxy-3′-methyl-4-biphenylyl)(methylcarbamoyl)amino)-N-3-isoxazolyl-3-pyridinesulfonamide] | 20
16 | CNC(=O)N(c1ccc(S(=O)(=O)Nc2ccon2)cn1)c1cc(Cl)c(-c2cccc(C(F)(F)F)c2)cc1OC [Example 1-31, 6-((2-chloro-5-methoxy-3′-(trifluoromethyl)-4-biphenylyl)(methylcarbamoyl)amino)-N-3-isoxazolyl-3-pyridinesulfonamide] | 16

Continued, values first:

Row | IC50 [nM] | SMILES
17 | 57 | CNC(=O)N(c1ccc(S(=O)(=O)Nc2ccon2)cn1)c1cc(F)c(-c2ccc(Cl)c(C)c2)cc1OC [Example 1-1, 6-((4′-chloro-2-fluoro-5-methoxy-3′-methyl-4-biphenylyl)(methylcarbamoyl)amino)-N-3-isoxazolyl-3-pyridinesulfonamide]
18 | 9 | CNC(=O)N(c1ccc(S(=O)(=O)Nc2ccon2)cn1)c1cc(F)c(-c2ccc(Cl)c(Cl)c2)cc1OC [Example 1-10, 6-((3′,4′-dichloro-2-fluoro-5-methoxy-4-biphenylyl)(methylcarbamoyl)amino)-N-3-isoxazolyl-3-pyridinesulfonamide]
19 | 14 | CNC(=O)N(c1ccc(S(=O)(=O)Nc2ccon2)cn1)c1cc(F)c(-c2ccc(Cl)c(C(F)(F)F)c2)cc1OC [Example 1-11, 6-((4′-chloro-2-fluoro-5-methoxy-3′-(trifluoromethyl)-4-biphenylyl)(methylcarbamoyl)amino)-N-3-isoxazolyl-3-pyridinesulfonamide]
20 | 85 | CNC(=O)N(c1ccc(S(=O)(=O)Nc2ccon2)cn1)c1cc(F)c(-c2cccc(OCC(F)(F)F)c2)cc1OC [Example 1-12, 6-((2-fluoro-5-methoxy-3′-(2,2,2-trifluoroethoxy)-4-biphenylyl)(methylcarbamoyl)amino)-N-3-isoxazolyl-3-pyridinesulfonamide]
21 | 17 | CNC(=O)N(c1ccc(S(=O)(=O)Nc2ccon2)cn1)c1cc(F)c(-c2cccc(OC(F)(F)F)c2)cc1OC [Example 1-14, 6-((2-fluoro-5-methoxy-3′-(trifluoromethoxy)-4-biphenylyl)(methylcarbamoyl)amino)-N-3-isoxazolyl-3-pyridinesulfonamide]
22 | 124 | CNC(=O)N(c1ccc(S(=O)(=O)Nc2ccon2)cn1)c1cc(F)c(-c2ccc(C)c(F)c2)cc1OC [Example 1-15, 6-((2,3′-difluoro-5-methoxy-4′-methyl-4-biphenylyl)(methylcarbamoyl)amino)-N-3-isoxazolyl-3-pyridinesulfonamide]
23 | 61 | CNC(=O)N(c1ccc(S(=O)(=O)Nc2ccon2)cn1)c1cc(F)c(-c2ccc(F)c(C)c2)cc1OC [Example 1-16, 6-((2,4′-difluoro-5-methoxy-3′-methyl-4-biphenylyl)(methylcarbamoyl)amino)-N-3-isoxazolyl-3-pyridinesulfonamide]
24 | 31 | CNC(=O)N(c1ccc(S(=O)(=O)Nc2ccon2)cn1)c1cc(F)c(-c2ccc(C)c(Cl)c2)cc1OC [Example 1-17, 6-((3′-chloro-2-fluoro-5-methoxy-4′-methyl-4-biphenylyl)(methylcarbamoyl)amino)-N-3-isoxazolyl-3-pyridinesulfonamide]
25 | 50 | CNC(=O)N(c1ccc(S(=O)(=O)Nc2ccon2)cn1)c1cc(F)c(-c2ccc(Cl)c(F)c2)cc1OC [Example 1-20, 6-((4′-chloro-2,3′-difluoro-5-methoxy-4-biphenylyl)(methylcarbamoyl)amino)-N-3-isoxazolyl-3-pyridinesulfonamide]
26 | 37 | CNC(=O)N(c1ccc(S(=O)(=O)Nc2ccon2)cn1)c1cc(F)c(-c2ccc(F)c(Cl)c2)cc1OC [Example 1-21, 6-((3′-chloro-2,4′-difluoro-5-methoxy-4-biphenylyl)(methylcarbamoyl)amino)-N-3-isoxazolyl-3-pyridinesulfonamide]
27 | 199 | CNC(=O)N(c1ccc(S(=O)(=O)Nc2ccon2)cn1)c1cc(F)c(-c2ccc(F)c(F)c2)cc1OC [Example 1-22, N-3-isoxazolyl-6-((methylcarbamoyl)(2,3′,4′-trifluoro-5-methoxy-4-biphenylyl)amino)-3-pyridinesulfonamide]
28 | 12 | CNC(=O)N(c1ccc(S(=O)(=O)Nc2ccon2)cn1)c1cc(F)c(-c2ccc(F)c(C(F)(F)F)c2)cc1OC [Example 1-26, 6-((2,4′-difluoro-5-methoxy-3′-(trifluoromethyl)-4-biphenylyl)(methylcarbamoyl)amino)-N-3-isoxazolyl-3-pyridinesulfonamide]
29 | 20 | CNC(=O)N(c1ccc(S(=O)(=O)Nc2ccon2)cn1)c1cc(F)c(-c2ccc(F)c(OC(F)(F)F)c2)cc1OC [Example 1-27, 6-((2,4′-difluoro-5-methoxy-3′-(trifluoromethoxy)-4-biphenylyl)(methylcarbamoyl)amino)-N-3-isoxazolyl-3-pyridinesulfonamide]
